Test system: human embryonic stem cells
Test: Metabolite profiling (LC/ESI-TOF mass spectrometry) of extracellular media of hESCs treated with alcohol
Assay type: cell-based
Description: Binned masses were annotated in silico by querying the neutral masses in several different databases. These databases included Metlin, Biological Magnetic Resonance Data Bank (BMRB), NIST Chemistry WebBook, and the Human Metabolome Database. A mass was considered identified when its neutral mass was within 10 ppm of a known compound annotated in one of the databases listed above.

CCO [ETOH]
Fold: Unknown, mass 646.7084, RT 5.903429 (ETOH 0.1, 4 D): −1.271 fold | Fold: Unknown, mass 661.3846, RT 26.7452 (ETOH 0.1, 4 D): 1.295 fold | Fold: Unknown, mass 693.4124, RT 31.11764 (ETOH 0.1, 4 D): 2.318 fold | Fold: Unknown, mass 699.9225, RT 33.70266 (ETOH 0.1, 4 D): 1.719 fold | Fold: Unknown, mass 707.3928, RT 34.62439 (ETOH 0.1, 4 D): 2.137 fold | Fold: Unknown, mass 708.9387, RT 33.73428 (ETOH 0.1, 4 D): 2.16 fold | Fold: Unknown, mass 730.4494, RT 33.89008 (ETOH 0.1, 4 D): 2.614 fold | Fold: Unknown, mass 731.0954, RT 47.76987 (ETOH 0.1, 4 D): −2.776 fold | Fold: Unknown, mass 732.007, RT 5.918027 (ETOH 0.1, 4 D): 1.795 fold | Fold: Unknown, mass 751.4193, RT 35.028 (ETOH 0.1, 4 D): 1.87 fold | Fold: Unknown, mass 752.4629, RT 34.12668 (ETOH 0.1, 4 D): 2.067 fold | Fold: Unknown, mass 774.4767, RT 34.33545 (ETOH 0.1, 4 D): 2.104 fold | Fold: Unknown, mass 774.5055, RT 89.29926 (ETOH 0.1, 4 D): −2.401 fold | Fold: Unknown, mass 780.241, RT 5.886782 (ETOH 0.1, 4 D): −1.314 fold | Fold: Unknown, mass 796.4891, RT 34.52749 (ETOH 0.1, 4 D): 1.927 fold | Fold: Unknown, mass 796.9917, RT 34.60124 (ETOH 0.1, 4 D): 1.818 fold | Fold: Unknown, mass 820.8181, RT 4.613879 (ETOH 0.1, 4 D): −1.47 fold | Fold: Unknown, mass 888.8041, RT 5.259716 (ETOH 0.1, 4 D): −1.458 fold | Fold: Unknown, mass 921.0025, RT 5.399211 (ETOH 0.1, 4 D): 1.678 fold | Fold: Unknown, mass 1008.072, RT 3.705141 (ETOH 0.1, 4 D): 1.304 fold | Fold: Unknown, mass 1038.786, RT 5.177162 (ETOH 0.1, 4 D): 1.678 fold | Fold: glucuronide, mass 471.1928, RT 30.37291 (ETOH 0.1, 4 D): 2.001 fold | Fold: 3,4-Dihydroxybutyric acid, mass 129.0452, RT 16.73904 (ETOH 0.1, 24 H): 1.502 fold | Fold: 3-Methylindole, mass 131.0746, RT 22.22892 (ETOH 0.1, 24 H): −1.857 fold | Fold: (+/−)-2-(4′-Isobutylphenyl)propionitrile, mass 187.1343, RT 22.17997 (ETOH 0.1, 24 H): 1.488 fold | Fold: GABA analogue, mass 171.1244, RT 26.70635 (ETOH 0.1, 24 H): 2.376 fold | Fold: Malonylcarnitine, mass 229.0949, RT 24.52067 (ETOH 0.1, 24 H): −2.33 fold | Fold: Oxidized glutathione (Glutathione disulfide; GSSG; Oxiglutatione), mass 612.1509, RT 8.056862 (ETOH 0.1, 24 H): −1.474 fold | Fold: Unknown, mass 130.9541, RT 88.64043 (ETOH 0.1, 24 H): 1.632 fold | Fold: Unknown, mass 148.0052, RT 3.958833 (ETOH 0.1, 24 H): −1.948 fold | Fold: Unknown, mass 266.1613, RT 64.66999 (ETOH 0.1, 24 H): −1.519 fold | Fold: Unknown, mass 271.9364, RT 4.86619 (ETOH 0.1, 24 H): 2.629 fold | Fold: Unknown, mass 272.16, RT 43.99398 (ETOH 0.1, 24 H): 1.93 fold | Fold: Unknown, mass 285.2285, RT 63.00428 (ETOH 0.1, 24 H): 4.003 fold | Fold: Unknown, mass 294.0957, RT 6.160071 (ETOH 0.1, 24 H): 1.269 fold | Fold: Unknown, mass 296.2308, RT 71.55535 (ETOH 0.1, 24 H): 3.545 fold | Fold: Unknown, mass 300.1656, RT 17.18696 (ETOH 0.1, 24 H): 1.549 fold | Fold: Unknown, mass 337.2012, RT 8.542672 (ETOH 0.1, 24 H): 1.402 fold | Fold: Unknown, mass 362.2787, RT 83.72506 (ETOH 0.1, 24 H): 2.82 fold | Fold: Unknown, mass 379.1771, RT 20.76168 (ETOH 0.1, 24 H): −1.723 fold | Fold: Unknown, mass 387.0812, RT 19.97914 (ETOH 0.1, 24 H): 1.739 fold | Fold: Unknown, mass 388.1815, RT 17.53242 (ETOH 0.1, 24 H): −1.449 fold | Fold: Unknown, mass 393.1889, RT 15.90129 (ETOH 0.1, 24 H): −1.431 fold | Fold: Unknown, mass 396.1687, RT 6.259963 (ETOH 0.1, 24 H): 1.718 fold | Fold: Unknown, mass 437.2042, RT 32.18393 (ETOH 0.1, 24 H): 24.53 fold | Fold: Unknown, mass 462.2217, RT 22.95657 (ETOH 0.1, 24 H): −1.986 fold | Fold: Unknown, mass 464.225, RT 25.3287 (ETOH 0.1, 24 H): −1.631 fold | Fold: Unknown, mass 482.3062, RT 72.7735 (ETOH 0.1, 24 H): −1.959 fold | Fold: Unknown, mass 485.2069, RT 6.676207 (ETOH 0.1, 24 H): −2.014 fold | Fold: Unknown, mass 521.9924, RT 34.35986 (ETOH 0.1, 24 H): −1.446 fold | Fold: Unknown, mass 577.2825, RT 16.90923 (ETOH 0.1, 24 H): 1.728 fold | Fold: Unknown, mass 677.9101, RT 33.48766 (ETOH 0.1, 24 H): −2.221 fold | Fold: Unknown, mass 695.4286, RT 28.2045 (ETOH 0.1, 24 H): −32.9384 fold | Fold: Unknown, mass 707.4296, RT 56.18269 (ETOH 0.1, 24 H): 1.49 fold | Fold: Unknown, mass 711.8344, RT 4.826824 (ETOH 0.1, 24 H): −3.021 fold | Fold: Unknown, mass 765.5211, RT 69.32865 (ETOH 0.1, 24 H): 1.873 fold | Fold: Unknown, mass 909.5934, RT 8.502051 (ETOH 0.1, 24 H): 2.274 fold | Fold: Unknown, mass 913.8074, RT 5.217833 (ETOH 0.1, 24 H): −1.861 fold | Fold: Unknown, mass 994.0917, RT 3.646902 (ETOH 0.1, 24 H): 1.442 fold | Fold: 3,4-Dihydroxybutyric acid, mass 120.0436, RT 3.767232 (ETOH 0.3, 4 D): 1.936 fold | Fold: 3-(2,5-Dimethoxy phenylpropionic acid, mass 210.0922, RT 36.18938) (ETOH 0.3, 4 D): 1.85 fold | Fold: 3-Methylindole, mass 131.0746, RT 22.22892 (ETOH 0.3, 4 D): 2.502 fold | Fold: 5-Ethyl-5-(1-methyl-3-carboxypropyl)barbituric acid, mass 256.1066, RT 18.84552 (ETOH 0.3, 4 D): −2.141 fold | Fold: 5-Methoxytryptophan, mass 234.1253, RT 53.26863 (ETOH 0.3, 4 D): −1.624 fold | Fold: (+)-Eudesmin, mass 386.1724, RT 51.65871 (ETOH 0.3, 4 D): 4.851 fold | Fold: Amino-4methylthiobutyric acid, mass 149.0511, RT 7.479235 (ETOH 0.3, 4 D): −1.305 fold | Fold: Benzenemethanol, 2-(2-aminopropoxy)-3-methyl- / a-[1-(ethylamino)ethyl]-p-hydroxy-Benzyl alcohol, mass 195.124, RT 31.19917 (ETOH 0.3, 4 D): −1.86 fold | Fold: Homogentisic acid / Vanillic acid, mass 168.0434, RT 19.18355 (ETOH 0.3, 4 D): 1.282 fold | Fold: L-Histidine / 4-propionic acid, mass 155.0681, RT 5.559732 (ETOH 0.3, 4 D): 1.638 fold | Fold: Malonylcarnitine, mass 229.0949, RT 24.52067 (ETOH 0.3, 4 D): −1.74 fold | Fold: N-Methyl-2-pyrrolidinone, mass 99.0689, RT 15.48433 (ETOH 0.3, 4 D): 1.338 fold | Fold: Pantothenol / dimethylbutanamide;, mass 205.1304, RT 6.747279 (ETOH 0.3, 4 D): −1.339 fold | Fold: Phenanthrene-9,10-oxide / 9-Hydroxyphenanthrene; 9-Phenanthrol, mass 194.073, RT 5.935143 (ETOH 0.3, 4 D): −1.4 fold | Fold: Thiosulfate, mass 111.9839, RT 4.032816 (ETOH 0.3, 4 D): −8.676 fold | Fold: Unknown, mass 120.2112, RT 13.40565 (ETOH 0.3, 4 D): 3.9 fold | Fold: Unknown, mass 131.076, RT 14.35336 (ETOH 0.3, 4 D): 4.05 fold | Fold: Unknown, mass 162.0662, RT 44.88033 (ETOH 0.3, 4 D): 1.799 fold | Fold: Unknown, mass 201.1709, RT 19.48063 (ETOH 0.3, 4 D): −2.979 fold | Fold: Unknown, mass 218.0762, RT 6.62669 (ETOH 0.3, 4 D): −1.771 fold | Fold: Unknown, mass 229.1457, RT 55.50731 (ETOH 0.3, 4 D): −1.533 fold | Fold: Unknown, mass 243.11, RT 27.39631 (ETOH 0.3, 4 D): −1.495 fold | Fold: Unknown, mass 247.1049, RT 6.626769 (ETOH 0.3, 4 D): −4.476 fold | Fold: Unknown, mass 247.1408, RT 9.0276 (ETOH 0.3, 4 D): −2.751 fold | Fold: Unknown, mass 267.2543, RT 40.75868 (ETOH 0.3, 4 D): −1.6481 fold
